Patent US20210032253A1, “PYRAZOLO[1,5-A][1,3,5]TRIAZINE-2-AMINE DERIVATIVE, PREPARATION METHOD THEREFOR AND MEDICAL USE THEREOF” (JIANGSU HENGRUI MEDICINE CO., LTD., priority 2018, published 2021)

What was measured:
Format in all cases: cell-based
[1] = biological target: T1, adenosine A3 receptor (A3R) (Homo sapiens, UniProt P0DMS8); assay: Inhibition of adenosine A3 receptor cAMP signaling pathway in CHO-K1/A3R cells (HTRF cAMP dynamic 2 kit); details: Table 3; for IC50: CHO-K1/A3R cells, cAMP, 10 μM forskolin, 5 nM 2Cl-IB-MECA; for IC50 ratio (A3R/A2aR): selectivity A3R over A2aR
T1 construct: expressed in transfected cells; host or cells: CHO-K1
T1 sequence (P0DMS8 1-318): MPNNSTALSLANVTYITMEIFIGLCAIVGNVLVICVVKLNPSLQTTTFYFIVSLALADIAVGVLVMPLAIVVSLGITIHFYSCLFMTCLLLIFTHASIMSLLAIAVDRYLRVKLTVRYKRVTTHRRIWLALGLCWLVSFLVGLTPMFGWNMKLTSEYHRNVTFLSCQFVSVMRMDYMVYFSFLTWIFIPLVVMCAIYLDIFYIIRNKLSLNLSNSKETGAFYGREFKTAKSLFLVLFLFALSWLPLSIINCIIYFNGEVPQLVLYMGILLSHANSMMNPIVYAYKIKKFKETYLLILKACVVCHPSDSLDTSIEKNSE
Text: (§1) Test Example 1. Determination of the inhibitory activities of the compounds of the present disclosure on the adenosine A2a receptor (A2aR) cAMP signaling pathway, the adenosine A1 receptor (A1R) cAMP signaling pathway and the adenosine A3 receptor (A3R) cAMP signaling pathway.
(§2) The inhibitory activities of the compounds of the present disclosure on the adenosine A2a receptor (A2aR) cAMP signaling pathway, the adenosine A1 receptor cAMP signaling pathway and the adenosine A3 receptor cAMP signaling pathway were determined by the following methods. The experimental method is briefly described as follows:
CHO-K1/A3R cells were cultured in DMEMIF12 medium containing 10% fetal bovine serum and 10 μg/mL puromycin. The cells were digested with the cell dissociation buffer during the experiment. The cells were resuspended in the HBSS buffer containing 20 mM HEPES and 0.1% bovine serum albumin and counted, and the cell density was adjusted to 5×10^5 cells/mL. In 384-well plates, each well was added with 12.5 μL of the cell suspension, and 6.25 μL of the test compounds (4× concentration) formulated with the HBSS buffer containing 20 mM HEPES, 0.1% bovine serum albumin, 54 μM rolipram and 2.7 U/mL adenosine deaminase, and the plates were incubated at room temperature for 30 minutes. Each well was then added with 6.25 μL of forskolin and 2Cl-IB-MECA (4× concentration) formulated with the HBSS buffer containing 20 mM HEPES, 0.1% bovine serum albumin, […] rolipram and 2.7 U/mL adenosine deaminase, and the plates were incubated at room temperature for 30 minutes. The final concentrations of the compounds were: 100000, 10000, 1000, 100, 10, 1, 0.1 and 0 nM. The final concentration of forskolin was 10 μM. The final concentration of 2Cl-IB-MECA was 5 nM. Intracellular cAMP concentration was determined with cAMP dynamic 2 kits. cAMP-d2 and Anti-cAMP—Eu-Cryptate were diluted respectively with the cAMP lysis buffer at a ratio of 1:4. Each well was added with 12.5 μL of the diluted cAMP-d2, followed by addition of 12.5 μL of the diluted Anti-cAMP—Eu-Cryptate, and the plates were incubated at room temperature in the dark for 1 hour. The HTRF signal values were read by the PHERAstar multi-function microplate reader. IC50 values for the inhibitory activities of the compounds were calculated by Graphpad Prism software, and are shown in Table 3.

[2] = biological target: T2, adenosine A1 receptor (A1R) (Homo sapiens, UniProt P30542); assay: Inhibition of adenosine A1 receptor cAMP signaling pathway in CHO-K1/A1R cells (HTRF cAMP dynamic 2 kit); details: Table 2; for IC50: CHO-K1/A1R cells, cAMP, 10 μM forskolin, 10 nM CPA; for IC50 ratio (A1R/A2aR): selectivity A1R over A2aR
T2 construct: expressed in transfected cells; host or cells: CHO-K1
T2 sequence (P30542 1-326): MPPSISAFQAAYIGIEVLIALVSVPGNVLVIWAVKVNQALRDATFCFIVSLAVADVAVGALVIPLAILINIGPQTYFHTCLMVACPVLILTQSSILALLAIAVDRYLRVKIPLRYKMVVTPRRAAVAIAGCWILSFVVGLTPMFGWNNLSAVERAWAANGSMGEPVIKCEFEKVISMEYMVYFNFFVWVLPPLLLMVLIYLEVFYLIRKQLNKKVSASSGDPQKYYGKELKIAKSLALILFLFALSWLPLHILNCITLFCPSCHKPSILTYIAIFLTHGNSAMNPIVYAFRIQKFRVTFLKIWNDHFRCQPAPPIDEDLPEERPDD
Text: as §1, §2
CHO-K1/A1R cells were cultured in DMEMIF12 medium containing 10% fetal bovine serum and 1 mg/mL G418. The cells were digested with the cell dissociation buffer during the experiment. The cells were then resuspended in the HBSS buffer containing 20 mM HEPES and 0.1% bovine serum albumin and counted, and the cell density was adjusted to 5×10^5 cells/mL. In 384-well plates, each well was added with 12.5 μL of the cell suspension, and 6.25 μL of the test compounds (4× concentration) formulated with the HBSS buffer containing 20 mM HEPES, 0.1% bovine serum albumin, 54 μM rolipram and 2.7 U/mL adenosine deaminase, and the plates were incubated at room temperature for 30 minutes. Each well was then added with 6.25 μL of forskolin and N6-cyclopentyladenosine (4× concentration) formulated with the HBSS buffer containing 20 mM HEPES, 0.1% bovine serum albumin, 54 μM rolipram and 2.7 U/mL adenosine deaminase, and the plates were incubated at room temperature for 30 minutes. The final concentrations of the compounds were: 100000, 10000, 1000, 100, 10, 1, 0.1 and 0 nM. The final concentration of forskolin was 10 μM. The final concentration of CPA was 10 nM. Intracellular cAMP concentration was determined with cAMP dynamic 2 kits. cAMP-d2 and Anti-cAMP—Eu-Cryptate were diluted respectively with the cAMP lysis buffer at a ratio of 1:4. Each well was added with 12.5 μL of the diluted cAMP-d2, followed by addition of 12.5 μL of the diluted Anti-cAMP—Eu-Cryptate, and the plates were incubated at room temperature in the dark for 1 hour. The HTRF signal values were read by the PHERAstar multi-function microplate reader.

[3] = biological target: T3, adenosine A2a receptor (A2aR) (Homo sapiens, UniProt P29274); assay: Inhibition of adenosine A2a receptor cAMP signaling pathway in CHO-K1/A2aR cells (HTRF cAMP dynamic 2 kit); details: Table 1, 20 nM ethylcarbazole
T3 construct: expressed in transfected cells; host or cells: CHO-K1
Text: as §1, §2
CHO-K1/A2aR cells were cultured in DMEM/F12 medium containing 10% fetal bovine serum and 800 μg/mL Zeocin™. The cells were digested with the cell dissociation buffer during the experiment. The cells were resuspended in the HBSS buffer containing 20 mM HEPES and 0.1% bovine serum albumin and counted, and the cell density was adjusted to 10^6 cells/mL. In 384-well plates, each well was added with 5 μL of the cell suspension, and 2.5 µL of test compounds (4× concentration) formulated with the HBSS buffer containing 20 mM HEPES, 0.1% bovine serum albumin, 54 μM rolipram and 2.7 U/mL adenosine deaminase, and the plates were incubated at room temperature for 30 minutes. Each well was then added with 2.5 μL of ethylcarbazole (4× concentration) formulated with the balanced salt buffer containing 20 mM HEPES, 0.1% bovine serum albumin, 54 μM rolipram and 2.7 U/mL adenosine deaminase, and the plates were incubated at room temperature for 30 minutes. The final concentrations of the compounds were: 10000, 2000, 400, 80, 16, 3.2, 0.64, 0.128, 0.0256, 0.00512, and 0.001024 nM. The final concentration of ethylcarbazole was 20 nM. Intracellular cAMP concentration was determined with cAMP dynamic 2 kits. cAMP-d2 and Anti-cAMP—Eu-Cryptate were diluted respectively with the cAMP lysis buffer at a ratio of 1:4. Each well was added with 5 μL of the diluted cAMP-d2, followed by addition of 5 μL of the diluted Anti-cAMP—Eu-Cryptate, and the plates were incubated at room temperature in the dark for 1 hour. The HTRF signal values were read by the PHERAstar multi-function microplate reader.

T3 sequence (P29274 whole entry): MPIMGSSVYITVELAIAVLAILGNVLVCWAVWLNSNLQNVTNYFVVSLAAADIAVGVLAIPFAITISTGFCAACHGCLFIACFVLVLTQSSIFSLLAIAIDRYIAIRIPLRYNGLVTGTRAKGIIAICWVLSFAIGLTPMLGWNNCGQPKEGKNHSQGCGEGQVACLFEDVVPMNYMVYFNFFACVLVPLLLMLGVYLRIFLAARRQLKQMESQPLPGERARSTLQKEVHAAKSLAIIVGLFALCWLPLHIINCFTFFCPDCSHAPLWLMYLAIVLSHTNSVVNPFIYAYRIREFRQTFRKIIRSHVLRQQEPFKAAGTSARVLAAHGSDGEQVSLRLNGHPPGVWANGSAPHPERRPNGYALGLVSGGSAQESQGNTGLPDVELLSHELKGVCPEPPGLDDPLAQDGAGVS

Row | IC50 [1] [nM] | IC50 ratio (A3R/A2aR) [1] | IC50 [2] [nM] | IC50 ratio (A1R/A2aR) [2] | IC50 [3] [nM] | Structure (SMILES)
1 | 5610 | >10^3 | 287 | 78^ | 3.74 | Cc1ccc(-c2nc(N)nc3c(Nc4cccc(CN5CC6(COC6)C5)n4)cnn23)o1 [Example 32, N^8-(6-((2-Oxa-6-azaspiro[3.3]heptan-6-yl)methyl)pyridin-2-yl)-4-(5-methylfuran-2-yl)pyrazolo[1,5-a][1,3,5]triazine-2,8-diamine]
2 | 1150 | 540^ | 595 | 279^ | 2.13 | Cc1ccc(-c2nc(N)nc3c(Sc4cccc(CO[C@H]5CCOC5)n4)cnn23)o1 [Example 28, (S)-4-(5-Methylfuran-2-yl)-8-((6-(((tetrahydrofuran-3-yl)oxy)methyl)pyridin-2-yl)thio)pyrazolo[1,5-a][1,3,5]triazin-2-amine]
3 | 7600 | >10^3 | 684 | 238^ | 2.87 | Cc1ccc(-c2nc(N)nc3c(Nc4cccc(CN5CC6COCC6C5)n4)cnn23)o1 (stereo not drawn) [Example 30, 4-(5-Methylfuran-2-yl)-N^8-(6-((tetrahydro-1H-furo[3,4-c]pyrrol-5(3H)-yl)methyl)pyridin-2-yl)pyrazolo[1,5-a][1,3,5]triazine-2,8-diamine]
4 | 2280 | >10^3 | 835 | >10^3 | 0.55 | Cc1ccc(-c2nc(N)nc3c(Cc4cccc(CN5CCOCC5)n4)cnn23)o1 [Example 5, 4-(5-Methylfuran-2-yl)-8-((6-(morpholinomethyl)pyridin-2-yl)methyl)pyrazolo[1,5-a][1,3,5]triazin-2-amine]
5 | 1050 | >10^3 | 303 | 532^ | 0.57 | Cc1ccc(-c2nc(N)nc3c(Cc4cccc(COC5CCCC5)n4)cnn23)o1 [Example 22, 8-((6-((Cyclopentyloxy)methyl)pyridin-2-yl)methyl)-4-(5-methylfuran-2-yl)pyrazolo[1,5-a][1,3,5]triazin-2-amine]
6 | 8150 | >10^3 | 2040 | >10^3 | 1.64 | Cc1ccc(-c2nc(N)nc3c(Nc4cccc(CO[C@H]5CCOC5)c4)cnn23)o1 [Example 25, (S)-4-(5-Methylfuran-2-yl)-N^8-(3-(((tetrahydrofuran-3-yl)oxy)methyl)phenyl)pyrazolo[1,5-a][1,3,5]triazine-2,8-diamine]
7 | 4120 | >10^3 | 434 | 964^ | 0.45 | COCCOCc1cccc(Cc2cnn3c(-c4ccc(C)o4)nc(N)nc23)n1 [Example 3, 8-((6-((2-Methoxyethoxy)methyl)pyridin-2-yl)methyl)-4-(5-methylfuran-2-yl)pyrazolo[1,5-a][1,3,5]triazin-2-amine]
8 | 5300 | >10^3 | 1210 | 731^ | 1.66 | Cc1ccc(-c2nc(N)nc3c(Nc4cccc(CO[C@H]5CCOC5)c4F)cnn23)o1 [Example 26, (S)—N^8-(2-fluoro-3-(((tetrahydrofuran-3-yl)oxy)methyl)phenyl)-4-(5-methylfuran-2-yl)pyrazolo[1,5-a][1,3,5]triazine-2,8-diamine]
9 | 1700 | >10^3 | 609 | >10^3 | 0.4 | Cc1ccc(-c2nc(N)nc3c(Nc4cccc(CO[C@@H]5CCOC5)n4)cnn23)o1 [Example 21, (R)-4-(5-Methylfuran-2-yl)-N^8-(6-(((tetrahydrofuran-3-yl)oxy)methyl)pyridin-2-yl)pyrazolo[1,5-a][1,3,5]triazine-2,8-diamine]
10 | 6490 | >10^3 | 943 | 714^ | 1.32 | Cc1ccc(-c2nc(N)nc3c(Cc4cccc(CN5CCN(C)CC5)n4)cnn23)o1 [Example 8, 4-(5-Methylfuran-2-yl)-8-((6-((4-methylpiperazin-1-yl)methyl)pyridin-2-yl)methyl)pyrazolo[1,5-a][1,3,5]triazin-2-amine]
11 | 2040 | >10^3 | 2020 | >10^3 | 1.2 | Cc1ccc(-c2nc(N)nc3c(Cc4cccc(CO[C@H]5CCOC5)c4)cnn23)o1 [Example 24, (S)-4-(5-Methylfuran-2-yl)-8-(3-(((tetrahydrofuran-3-yl)oxy)methyl)benzyl)pyrazolo[1,5-a][1,3,5]triazin-2-amine]
12 | 2420 | >10^3 | 1100 | >10^3 | 0.87 | Cc1ccc(-c2nc(N)nc3c(Cc4cccc(CO)n4)cnn23)o1 [Example 2, (6-((2-Amino-4-(5-methylfuran-2-yl)pyrazolo[1,5-a][1,3,5]triazin-8-yl)methyl)pyridin-2-yl)methanol]
